Test results as given in patent US11446287B2, “Compounds and methods for EP300 or CBP modulation and indications therefor” (Opna Immuno-Oncology SA, priority 2019, dated 2022).

The compounds below were run against T1, Recombinant human EP300 containing the bromodomain (EP300-BD (1040-1161)) (Homo sapiens, UniProt Q09472) (assay: EP300 Alphascreen binding assay).
T1 construct: Recombinant human EP300 bromodomain (EP300-BD (1040-1161)); made in house; host or cells: E. coli BL21-CodonPlus (DE3), modified pET vector
T1 sequence (Q09472 1040-1161): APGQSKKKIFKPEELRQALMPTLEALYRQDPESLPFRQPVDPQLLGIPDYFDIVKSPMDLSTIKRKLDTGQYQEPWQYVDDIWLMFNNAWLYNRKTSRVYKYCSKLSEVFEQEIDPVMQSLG
Outline: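 Displacement of a biotinylated acetyl-K56 histone H3 peptide from the N-His bromodomain construct (1040-1161) measured by AlphaScreen proximity, beads at 7.5 μg/ml final, read 60 min after addition. Protein, peptide and compound first incubated 1 h at room temperature, pH 7.5 HEPES buffer; IC50 by four-parameter logistic fit.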

Compound | IC50 [nM]
Cc1nn(CC(C)(C)O)cc1-n1cc(-c2ccc(C(=O)O)cc2OC(F)(F)F)c2cc(-c3c(C)noc3C)cnc21 [P-0365, 4-(5-(3,5-dimethylisoxazol-4-yl)-1-(1-(2-hydroxy-2-methylpropyl)-3-methyl-1H-pyrazol-4-yl)-1H-pyrrolo[2,3-b]pyridin-3-yl)-3-(trifluoromethoxy)benzoic acid] | 0.1 to 1000
Cc1noc(C)c1-c1cnc2c(c1)c(-c1ccc(C(=O)O)cc1OC(F)(F)F)c(C)n2C(C1CC1)C1CC1 [P-0343, 4-(1-(dicyclopropylmethyl)-5-(3,5-dimethylisoxazol-4-yl)-2-methyl-1H-pyrrolo[2,3-b]pyridin-3-yl)-3-(trifluoromethoxy)benzoic acid] | 0.1 to 1000
Cc1noc(C)c1-c1cnc2c(c1)c(-c1ccc(C(=O)O)cc1OC(F)(F)F)cn2-c1ccc(C(N)=O)cc1 [P-0323, 4-(1-(4-carbamoylphenyl)-5-(3,5-dimethylisoxazol-4-yl)-1H-pyrrolo[2,3-b]pyridin-3-yl)-3-(trifluoromethoxy)benzoic acid] | 0.1 to 1000
CCOc1cc(C(=O)O)cc(Cl)c1-c1cn(C2CCOCC2)c2ncc(-c3c(C)noc3C)cc12 [P-0371, 3-chloro-4-(5-(3,5-dimethylisoxazol-4-yl)-1-(tetrahydro-2H-pyran-4-yl)-1H-pyrrolo[2,3-b]pyridin-3-yl)-5-ethoxybenzoic acid] | 0.1 to 1000
CCOc1cc(C(=O)O)nc(OCC)c1-c1cn(-c2ccc(F)cc2F)c2ncc(-c3c(C)noc3C)cc12 [P-0329, 5-(1-(2,4-difluorophenyl)-5-(3,5-dimethylisoxazol-4-yl)-1H-pyrrolo[2,3-b]pyridin-3-yl)-4,6-diethoxypicolinic acid] | 0.1 to 1000
COc1cc(C(=O)O)ncc1-c1cn(C2CCOCC2)c2ncc(-c3c(C)noc3C)cc12 [P-0362, 5-(5-(3,5-dimethylisoxazol-4-yl)-1-(tetrahydro-2H-pyran-4-yl)-1H-pyrrolo[2,3-b]pyridin-3-yl)-4-methoxypicolinic acid] | 0.1 to 1000
Cc1cc(C(=O)O)cc(OCC(F)F)c1-c1cn(C2CCOCC2)c2ncc(-c3c(C)noc3C)cc12 [P-0367, 3-(2,2-difluoroethoxy)-4-(5-(3,5-dimethylisoxazol-4-yl)-1-(tetrahydro-2H-pyran-4-yl)-1H-pyrrolo[2,3-b]pyridin-3-yl)-5-methylbenzoic acid] | 0.1 to 1000
Cc1cc(-c2cn(C(c3ccccn3)C3CCCC3)c3ncc(-c4c(C)noc4C)cc23)ccc1C(=O)O (centres unmarked) [P-0028, 4-(1-(cyclopentyl(pyridin-2-yl)methyl)-5-(3,5-dimethylisoxazol-4-yl)-1H-pyrrolo[2,3-b]pyridin-3-yl)-2-methylbenzoic acid] | 0.1 to 1000
CCOc1cc(C(=O)O)cc(Cl)c1-c1cn(C(C2CC2)C2CC2)c2ncc(-c3c(C)noc3C)cc12 [P-0370, 3-chloro-4-(1-(dicyclopropylmethyl)-5-(3,5-dimethylisoxazol-4-yl)-1H-pyrrolo[2,3-b]pyridin-3-yl)-5-ethoxybenzoic acid] | 0.1 to 1000
Cc1noc(C)c1-c1cnc2c(c1)c(-c1ccc(C(=O)O)cc1OC(F)(F)F)cn2C1(C)CCOCC1 [P-0385, 4-(5-(3,5-dimethylisoxazol-4-yl)-1-(4-methyltetrahydro-2H-pyran-4-yl)-1H-pyrrolo[2,3-b]pyridin-3-yl)-3-(trifluoromethoxy)benzoic acid] | 0.1 to 1000
Cc1noc(C)c1-c1cnc2c(c1)c(-c1ccc(C(=O)O)cc1OC1CCC1)cn2-c1cnn(C(F)F)c1C [P-0353, 3-cyclobutoxy-4-(1-(1-(difluoromethyl)-5-methyl-1H-pyrazol-4-yl)-5-(3,5-dimethylisoxazol-4-yl)-1H-pyrrolo[2,3-b]pyridin-3-yl)benzoic acid] | 0.1 to 1000
Cc1noc(C)c1-c1cnc2c(c1)c(-c1ccc(C(=O)O)cc1OC(F)(F)F)cn2-c1cnc(C2CC2)nc1 [P-0384, 4-(1-(2-cyclopropylpyrimidin-5-yl)-5-(3,5-dimethylisoxazol-4-yl)-1H-pyrrolo[2,3-b]pyridin-3-yl)-3-(trifluoromethoxy)benzoic acid] | 0.1 to 1000
Cc1noc(C)c1-c1cnc2c(c1)c(-c1ccc(C(=O)O)cc1OC(C)C)cn2-c1ncccc1C#N [P-0336, 4-(1-(3-cyanopyridin-2-yl)-5-(3,5-dimethylisoxazol-4-yl)-1H-pyrrolo[2,3-b]pyridin-3-yl)-3-isopropoxybenzoic acid] | 0.1 to 1000
Cc1noc(C)c1-c1cnc2c(c1)c(-c1ccc(C(=O)O)cc1OCC(F)F)cn2-c1cnc(N2CCC2)nc1 [P-0328, 4-(1-(2-(azetidin-1-yl)pyrimidin-5-yl)-5-(3,5-dimethylisoxazol-4-yl)-1H-pyrrolo[2,3-b]pyridin-3-yl)-3-(2,2-difluoroethoxy)benzoic acid] | 0.1 to 1000
Cc1noc(C)c1-c1cnc2c(c1)c(-c1ccc(C(=O)O)cc1OC(F)(F)F)cn2C1CCCC1 [P-0382, 4-(1-cyclopentyl-5-(3,5-dimethylisoxazol-4-yl)-1H-pyrrolo[2,3-b]pyridin-3-yl)-3-(trifluoromethoxy)benzoic acid] | 0.1 to 1000
Cc1noc(C)c1-c1cnc2c(c1)c(-c1c(F)cc(C(=O)O)cc1OCC(F)F)cn2-c1ccccc1 [P-0327, 3-(2,2-difluoroethoxy)-4-(5-(3,5-dimethylisoxazol-4-yl)-1-phenyl-1H-pyrrolo[2,3-b]pyridin-3-yl)-5-fluorobenzoic acid] | 0.1 to 1000
Cc1noc(C)c1-c1cnc2c(c1)c(-c1ccc(C(=O)O)cc1OC1CCC1)cn2-c1ncccc1C#N [P-0334, 4-(1-(3-cyanopyridin-2-yl)-5-(3,5-dimethylisoxazol-4-yl)-1H-pyrrolo[2,3-b]pyridin-3-yl)-3-cyclobutoxybenzoic acid] | 0.1 to 1000
COc1cc(C(=O)O)ncc1-c1cn(-c2ccncc2Cl)c2ncc(-c3c(C)noc3C)cc12 [P-0324, 5-(1-(3-chloropyridin-4-yl)-5-(3,5-dimethylisoxazol-4-yl)-1H-pyrrolo[2,3-b]pyridin-3-yl)-4-methoxypicolinic acid] | 0.1 to 1000
CCOc1cc(C(=O)O)c(F)cc1-c1cn(-c2ccccc2F)c2ncc(-c3c(C)noc3C)cc12 [P-0377, 4-(5-(3,5-dimethylisoxazol-4-yl)-1-(2-fluorophenyl)-1H-pyrrolo[2,3-b]pyridin-3-yl)-5-ethoxy-2-fluorobenzoic acid] | 0.1 to 1000
Cc1noc(C)c1-c1cnc2c(c1)c(-c1ccc(C(=O)O)cc1OC(F)(F)F)cn2CC1(C#N)CCC1 [P-0364, 4-(1-((1-cyanocyclobutyl)methyl)-5-(3,5-dimethylisoxazol-4-yl)-1H-pyrrolo[2,3-b]pyridin-3-yl)-3-(trifluoromethoxy)benzoic acid] | 0.1 to 1000
Cc1noc(C)c1-c1cnc2c(c1)c(-c1ccc(C(=O)O)cc1OC(C)C)cn2-c1cnn(C(F)F)c1C [P-0354, 4-(1-(1-(difluoromethyl)-5-methyl-1H-pyrazol-4-yl)-5-(3,5-dimethylisoxazol-4-yl)-1H-pyrrolo[2,3-b]pyridin-3-yl)-3-isopropoxybenzoic acid] | 0.1 to 1000
COc1cc(C(=O)O)ncc1-c1cn(C(C2CC2)C2CC2)c2ncc(-c3c(C)noc3C)cc12 [P-0339, 5-(1-(dicyclopropylmethyl)-5-(3,5-dimethylisoxazol-4-yl)-1H-pyrrolo[2,3-b]pyridin-3-yl)-4-methoxypicolinic acid] | 0.1 to 1000
Cc1noc(C)c1-c1ccc2c(c1)c(-c1ccc(C(=O)O)cc1OC(F)(F)F)cn2C(C1CC1)C1CC1 [P-0344, 4-(1-(dicyclopropylmethyl)-5-(3,5-dimethylisoxazol-4-yl)-1H-indol-3-yl)-3-(trifluoromethoxy)benzoic acid] | 0.1 to 1000
Cc1noc(C)c1-c1cnc2c(c1)c(-c1c(Cl)cc(C(=O)O)cc1OC(C)C)cn2C1CCOCC1 [P-0372, 3-chloro-4-(5-(3,5-dimethylisoxazol-4-yl)-1-(tetrahydro-2H-pyran-4-yl)-1H-pyrrolo[2,3-b]pyridin-3-yl)-5-isopropoxybenzoic acid] | 0.1 to 1000
Cc1noc(C)c1-c1cnc2c(c1)c(-c1c(Cl)cc(C(=O)O)cc1OC(F)(F)F)cn2[C@H]1CCOC1 [P-0346, (S)-3-chloro-4-(5-(3,5-dimethylisoxazol-4-yl)-1-(tetrahydrofuran-3-yl)-1H-pyrrolo[2,3-b]pyridin-3-yl)-5-(trifluoromethoxy)benzoic acid] | 0.1 to 1000
Cc1noc(C)c1-c1cnc2c(c1)c(-c1c(Cl)cc(C(=O)O)cc1OCC(F)F)cn2-c1cnc(N2CCC2)nc1 [P-0331, 4-(1-(2-(azetidin-1-yl)pyrimidin-5-yl)-5-(3,5-dimethylisoxazol-4-yl)-1H-pyrrolo[2,3-b]pyridin-3-yl)-3-chloro-5-(2,2-difluoroethoxy)benzoic acid] | 0.1 to 1000
Cc1noc(C)c1-c1cnc2c(c1)c(-c1ccc(C(=O)O)cc1OC(C)C)c(C)n2C(C1CC1)C1CC1 [P-0342, 4-(1-(dicyclopropylmethyl)-5-(3,5-dimethylisoxazol-4-yl)-2-methyl-1H-pyrrolo[2,3-b]pyridin-3-yl)-3-isopropoxybenzoic acid] | 0.1 to 1000
Cc1noc(C)c1-c1cnc2c(c1)c(-c1c(Cl)cc(C(=O)O)cc1OCC(F)F)cn2C(C1CC1)C1CC1 [P-0340, 3-chloro-4-(1-(dicyclopropylmethyl)-5-(3,5-dimethylisoxazol-4-yl)-1H-pyrrolo[2,3-b]pyridin-3-yl)-5-(2,2-difluoroethoxy)benzoic acid] | 0.1 to 1000
Cc1noc(C)c1-c1cnc2c(c1)c(-c1c(Cl)cc(C(=O)O)cc1OCC(F)F)cn2-c1cnn(C(F)F)c1C [P-0352, 3-chloro-5-(2,2-difluoroethoxy)-4-(1-(1-(difluoromethyl)-5-methyl-1H-pyrazol-4-yl)-5-(3,5-dimethylisoxazol-4-yl)-1H-pyrrolo[2,3-b]pyridin-3-yl)benzoic acid] | 0.1 to 1000
